In patent US9353089B2, “Compositions and methods for the treatment of malaria” (Saint Louis University, priority 2013, dated 2016):
Like-named read-outs stand apart in the source and are kept apart here.

Tests used:
[1] = test system: Plasmodium falciparum 3D7 (CQ-sensitive); test: In vitro antimalarial assay (malaria SYBR Green I-based fluorescence, MSF), 3D7; type: cell-based
How it was run: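 Asynchronous P. falciparum 3D7 cultures (0.5% parasitemia, 2% hematocrit) were exposed to serially diluted compounds, in quadruplicate. Growth was then quantified by SYBR Green I fluorescence after adding lysis buffer containing 0.2 μL/mL dye.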

[2] = target: Plasmepsin-2 (PM-2; Plm II) (Plasmodium falciparum (isolate HB3), UniProt P46925); test: Plasmepsin-2 enzyme inhibition assay; type: biochemical
Plasmepsin-2 (PM-2; Plm II), sequence (P46925 125-453 limits assumed): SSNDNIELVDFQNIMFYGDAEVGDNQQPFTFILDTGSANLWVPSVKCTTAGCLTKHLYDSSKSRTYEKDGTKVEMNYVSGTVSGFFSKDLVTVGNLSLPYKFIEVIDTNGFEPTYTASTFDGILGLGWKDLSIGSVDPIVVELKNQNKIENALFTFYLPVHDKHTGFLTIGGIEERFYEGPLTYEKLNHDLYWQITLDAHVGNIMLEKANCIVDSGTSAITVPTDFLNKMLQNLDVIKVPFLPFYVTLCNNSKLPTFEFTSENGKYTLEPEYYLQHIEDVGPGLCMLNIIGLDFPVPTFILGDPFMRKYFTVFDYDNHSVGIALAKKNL
How it was run: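 Enzymes activated in pH 4.5 citrate/DTT buffer, then assayed in 50 mM sodium acetate pH 4.7, 0.01% Tween-20. Compounds added before fluorogenic peptide substrate (final 20 µM); 60 min at room temperature, fluorescence Ex/Em 360/535 nm, IC50 by curve fit.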

[3] = target: Plasmepsin (PM-4; Plm IV) (Plasmodium falciparum (isolate 3D7), UniProt Q8IM16); test: Plasmepsin-4 enzyme inhibition assay; type: biochemical; settings: Table 8
Plasmepsin (PM-4; Plm IV), sequence (Q8IM16 122-449 limits assumed): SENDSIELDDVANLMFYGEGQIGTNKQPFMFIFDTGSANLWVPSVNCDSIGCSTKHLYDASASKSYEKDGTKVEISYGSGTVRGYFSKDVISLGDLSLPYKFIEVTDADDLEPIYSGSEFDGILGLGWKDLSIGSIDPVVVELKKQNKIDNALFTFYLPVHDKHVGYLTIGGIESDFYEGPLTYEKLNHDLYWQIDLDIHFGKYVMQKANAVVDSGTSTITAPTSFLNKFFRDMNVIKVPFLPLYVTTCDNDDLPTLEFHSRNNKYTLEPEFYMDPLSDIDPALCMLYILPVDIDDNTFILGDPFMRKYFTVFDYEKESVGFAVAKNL
Experimental: Plasmepsin-2 (PM-2; Plm II) and Plasmepsin (PM-4; Plm IV) expression and purification was performed following the published protocols (Istvan E S and Goldberg D E, 2005). The final purified protein was activated by diluting the protein to 0.3 mg/mL in activating buffer (0.1 M citrate pH 4.5, 0.1% Tween-20, 50 mM dithiothreitol) and incubated at room temperature for 40 min, then the activated enzyme was diluted in assay buffer (50 mM sodium acetate pH 4.7, 0.01% Tween-20). The enzymatic inhibition reaction was performed in 384 well plates with a total volume of 20 μl. 10 μl of diluted PM-2 or PM-4 enzyme was added to the 384-well plate except blank wells (blank wells add 10 μL of assay buffer) and 20 nL of serials of diluted 1000× compounds were added to the wells with 520 Echo® Liquid Handling System (Labcyte Inc.). 10 μL PM-2 peptide substrate (AnaSpec, Cat#, 62050) with assay buffer was then added to final concentration of 20 μM to start the reaction. After incubation the reaction at room temperature for 60 min, the fluorescence intensity at Ex/Em=360 nm/535 nm was measured using EnVision multilabel plate reader (Perkin-Elmer). The IC50 values were obtained using Graph Pad Prism 4 and are reported in Tables 8 and 9 below as PM-2 IC50 values.

[4] = target: recombinant human BACE1 (Homo sapiens, UniProt P56817); test: β-Secretase (BACE1) enzyme inhibition FRET assay; type: biochemical
recombinant human BACE1 (Homo sapiens, UniProt P56817), sequence (P56817 46-501 limits assumed): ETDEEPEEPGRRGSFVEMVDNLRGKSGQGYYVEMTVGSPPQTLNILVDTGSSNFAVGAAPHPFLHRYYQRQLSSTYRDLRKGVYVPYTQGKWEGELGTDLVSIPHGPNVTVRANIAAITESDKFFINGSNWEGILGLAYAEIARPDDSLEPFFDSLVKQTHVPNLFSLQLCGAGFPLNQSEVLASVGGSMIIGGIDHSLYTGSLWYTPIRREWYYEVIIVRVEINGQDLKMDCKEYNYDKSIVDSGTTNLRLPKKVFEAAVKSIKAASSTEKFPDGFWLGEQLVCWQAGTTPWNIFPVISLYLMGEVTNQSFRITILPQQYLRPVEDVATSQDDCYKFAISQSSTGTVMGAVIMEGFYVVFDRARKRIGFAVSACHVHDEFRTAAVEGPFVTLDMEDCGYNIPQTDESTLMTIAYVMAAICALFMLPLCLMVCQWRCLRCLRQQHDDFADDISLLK
Experimental: (§1) The enzymatic inhibition activity assays were determined using the fluorescence resonance energy transfer (FRET) assay. The assays were performed in a 384-well plate format. […] CatD and CatE were activated by incubation in assay buffer (0.1 M NaOAc, 0.2 M NaCl, pH 3.5) at room temperature for 30 min. Subsequently, the rhBACE-1 substrate (R&D Systems, catalog# ES004), the Cathepsin D and Cathepsin E substrate (R&D Systems, Catalog # ES001) were added accordingly to final concentration 20 μM to initiate the reaction. After 60 min incubation at room temperature, the time-resolved fluorescence at Ex/Em=360 nm/460 nm was measured on an EnVision multilabel plate reader (Perkin-Elmer). The analytical software, GraphPad Prism 5.0 (GraphPad Software, Inc., USA) was used to generate IC50 values via non-linear regression analysis, which are reported in Tables 8-13 below as BACE1 IC50 values.

[5] = target: recombinant human Cathepsin D (Homo sapiens (Human), UniProt P07339); test: Cathepsin D enzyme inhibition FRET assay; type: biochemical; settings: Table 8; read-out: CatD IC50
recombinant human Cathepsin D, sequence (P07339 65-412): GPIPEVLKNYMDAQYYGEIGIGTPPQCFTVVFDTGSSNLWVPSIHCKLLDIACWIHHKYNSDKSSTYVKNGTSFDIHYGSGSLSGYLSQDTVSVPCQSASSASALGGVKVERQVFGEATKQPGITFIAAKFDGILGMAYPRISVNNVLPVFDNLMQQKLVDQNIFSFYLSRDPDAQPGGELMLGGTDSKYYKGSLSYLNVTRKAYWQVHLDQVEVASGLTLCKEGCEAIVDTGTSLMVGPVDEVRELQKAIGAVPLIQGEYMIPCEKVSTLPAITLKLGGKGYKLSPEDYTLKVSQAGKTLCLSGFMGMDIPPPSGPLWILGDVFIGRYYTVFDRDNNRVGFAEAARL
Experimental: (§2) The enzymatic inhibition activity assays were determined using the fluorescence resonance energy transfer (FRET) assay. The assays were performed in a 384-well plate format. […] The concentration of Cathepsin D was 20 ng/μL, and 1 ng/μL of Cathepsin E was used. CatD and CatE were activated by incubation in assay buffer (0.1 M NaOAc, 0.2 M NaCl, pH 3.5) at room temperature for 30 min. Subsequently, the rhBACE-1 substrate (R&D Systems, catalog# ES004), the Cathepsin D and Cathepsin E substrate (R&D Systems, Catalog # ES001) were added accordingly to final concentration 20 μM to initiate the reaction. After 60 min incubation at room temperature, the time-resolved fluorescence at Ex/Em=360 nm/460 nm was measured on an EnVision multilabel plate reader (Perkin-Elmer). The analytical software, GraphPad Prism 5.0 (GraphPad Software, Inc., USA) was used to generate IC50 values via non-linear regression analysis, which are reported in Tables 8-13 below as BACE1 IC50 values.

[6] = target: recombinant human Cathepsin E (Homo sapiens (Human), UniProt P14091); test: Cathepsin E enzyme inhibition FRET assay; type: biochemical; settings: Table 8; read-out: CatE IC50
recombinant human Cathepsin E, sequence (P14091 54-396): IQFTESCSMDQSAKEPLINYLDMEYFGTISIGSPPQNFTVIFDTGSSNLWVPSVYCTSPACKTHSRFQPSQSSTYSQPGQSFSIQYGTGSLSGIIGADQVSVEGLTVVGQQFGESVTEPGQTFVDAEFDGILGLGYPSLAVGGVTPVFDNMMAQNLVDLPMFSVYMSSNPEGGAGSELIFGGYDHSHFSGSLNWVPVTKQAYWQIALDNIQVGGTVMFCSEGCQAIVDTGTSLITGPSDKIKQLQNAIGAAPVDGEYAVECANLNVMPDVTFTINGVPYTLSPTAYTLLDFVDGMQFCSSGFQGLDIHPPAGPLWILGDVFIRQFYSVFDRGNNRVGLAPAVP
Experimental: as §2

[7] = test system: recombinant human BACE1; test: β-Secretase (BACE1) enzyme inhibition FRET assay; type: biochemical
Experimental: as §1

[8] = 3D7, read-out: Pf 3D7 IC50, Table 8
[9] = 3D7, read-out: 3D7 IC50 (μM), Table 12
[10] = 3D7, read-out: 3D7 IC50 (μM), Table 13
[11] = ratio of BACE1 IC50 to PM-2 IC50
[12] = 3D7, Table 8, read-out: Pf 3D7 IC50
[13] = 3D7, Table 10, read-out: Pf3D7 IC50
[14] = 3D7, Table 13, read-out: 3D7 IC50
[15] = 3D7, read-out: Pf 3D7 IC50 (μM), Table 11

Q: What does the source list for CCC(CN1C(=N)NC(c2ccccc2)(c2ccccc2)C1=O)c1ccccc1 (centres unmarked) [drawing 192]?
A: IC50 [1, 8]: 2.76 µM; IC50 ([2]; Table 8, read-out: PM-II IC50): 12 nM; IC50 [3]: 45 nM; IC50 ([4]; Table 8, read-out: BACE IC50): 2300 nM; IC50 [5]: 385 nM; IC50 [6]: 99 nM

Q: COc1cccc(-c2cccc(C3(c4ccccc4)NC(=N)N(C4CCCCC4)C3=O)c2)c1 (centres unmarked) [Example 326, 3-cyclohexyl-2-imino-5-[3-(3-methoxyphenyl)phenyl]-5-phenylimidazolidin-4-one] was tested. Which IC50 [1, 9] did it give?
A: 1.34 µM

Q: What about the IC50 [1, 10] of the same molecule?
A: 1.34 µM

Q: And the IC50 ([2]; Table 12, read-out: PM-2 IC50)?
A: 33.1 nM

Q: What about the IC50 ([2]; Table 13, read-out: PM-2 IC50) of the same molecule?
A: 33.1 nM

Q: And the IC50 ([4]; Table 12, read-out: BACE1 IC50)?
A: ~9000 nM

Q: And the IC50 ([4]; Table 13, read-out: BACE1 IC50)?
A: ~8900 nM

Q: And the “BACE1/PM2 Ratio” value [7, 11]?
A: ~270

Q: Which results are given for COc1ccc(C2(c3ccc(OC)cc3)NC(=O)N(C3CCCCC3)C2=O)cc1?
A: IC50 [1, 12]: > 10 µM; IC50 ([2]; Table 8, read-out: PM-II IC50): > 10000 nM; IC50 [3]: > 10000 nM

Q: With COc1cccc(-c2cccc(C3(c4ccccc4)NC(=N)N(C4CCOCC4)C3=O)c2)c1 (centres unmarked) [Example 324, 2-imino-5-[3-(3-methoxyphenyl)-phenyl]-3-(oxan-4-yl)-5-phenylimidazolidin-4-one] as the molecule, how does the IC50 [1, 9] read?
A: 1.46 µM

Q: And the IC50 [1, 10]?
A: 1.46 µM

Q: What about the IC50 ([2]; Table 12, read-out: PM-2 IC50) of the same molecule?
A: 11.3 nM

Q: And the IC50 ([2]; Table 13, read-out: PM-2 IC50)?
A: 11.3 nM

Q: What about the IC50 ([4]; Table 12, read-out: BACE1 IC50) of the same molecule?
A: 2460 nM

Q: And the IC50 ([4]; Table 13, read-out: BACE1 IC50)?
A: 2460 nM

Q: What about the “BACE1/PM2 Ratio” value [7, 11] of the same molecule?
A: 218

Q: How did the IC50 [1, 12] turn out when COc1ccc(C2(c3ccc(OC)cc3)NC(=N)N(C3CCN(C)CC3)C2=O)cc1 [Example 166, 2-imino-5,5-bis(4-methoxyphenyl)-3-(1-methylpiperidin-4-yl)imidazolidin-4-one] was run?
A: 0.697 µM

Q: What about the IC50 [1, 13] of the same molecule?
A: 0.697 µM

Q: What about the IC50 [1, 14] of the same molecule?
A: 0.697 µM

Q: And the IC50 ([2]; Table 8, read-out: PM-II IC50)?
A: 35 nM

Q: And the IC50 ([2]; Table 13, read-out: PM-2 IC50)?
A: 34.7 nM

Q: And the IC50 [3]?
A: 109 nM

Q: What does the source list for COc1cccc(C2(c3cccc(OC)c3)NC(=N)N(C3CCCCC3)C2=O)c1 [Example 128, 3-cyclohexyl-2-imino-5,5-bis(3-methoxyphenyl)-imidazolidin-4-one]?
A: IC50 [1, 10]: 0.768 µM; IC50 [1, 15]: 0.768 µM; IC50 [1, 8]: 0.768 µM; IC50 ([2]; Table 8, read-out: PM-II IC50): 36 nM; IC50 ([2]; Table 13, read-out: PM-2 IC50): 35.9 nM; IC50 [3]: 41 nM; IC50 ([4]; Table 8, read-out: BACE IC50): 28900 nM; IC50 ([4]; Table 13, read-out: BACE1 IC50): 28900 nM; IC50 [5]: 1100 nM; IC50 [6]: 1860 nM

Q: Which IC50 [1, 12] does the source give for COc1ccc(C2(c3ccc(OC)cc3)NC(=N)N(C3CCNCC3)C2=O)cc1 [Example 207, 2-imino-5,5-bis(4-methoxyphenyl)-3-(piperidin-4-yl)-imidazolidin-4-one] here?
A: > 5 µM

Q: What about the IC50 [1, 13] of the same molecule?
A: > 5 µM

Q: And the IC50 [1, 14]?
A: > 5 µM

Q: What about the IC50 ([2]; Table 8, read-out: PM-II IC50) of the same molecule?
A: 505 nM

Q: What about the IC50 ([2]; Table 13, read-out: PM-2 IC50) of the same molecule?
A: 505 nM

Q: And the IC50 [3]?
A: 192 nM

Q: For COc1ccc(C2(c3cccc(-c4cccnc4)c3)NC(=N)N(C3CCCCC3)C2=O)cc1 (centres unmarked) [Example 171, 3-cyclohexyl-2-imino-5-(4-methoxyphenyl)-5-[3-(pyridin-3-yl)phenyl]-imidazolidin-4-one], which IC50 [1, 10] is on record?
A: 0.595 µM

Q: What about the IC50 [1, 15] of the same molecule?
A: 0.595 µM

Q: And the IC50 [1, 8]?
A: 0.595 µM

Q: And the IC50 ([2]; Table 8, read-out: PM-II IC50)?
A: 7 nM

Q: And the IC50 ([2]; Table 13, read-out: PM-2 IC50)?
A: 6.97 nM

Q: And the IC50 [3]?
A: 7 nM

Q: What about the IC50 ([4]; Table 8, read-out: BACE IC50) of the same molecule?
A: ~7150 nM

Q: What about the IC50 ([4]; Table 13, read-out: BACE1 IC50) of the same molecule?
A: ~7150 nM

Q: And the IC50 [5]?
A: ~14900 nM

Q: What about the IC50 [6] of the same molecule?
A: 4010 nM

Q: How did the IC50 [1, 9] turn out when COc1cccc(-c2cccc(C3(C4CC4)NC(=N)N(C4CCOCC4)C3=O)c2)c1 (centres unmarked) [Example 329, 5-cyclopropyl-2-imino-5-[3-(3-methoxyphenyl)-phenyl]-3-(oxan-4-yl)imidazolidin-4-one] was run?
A: 0.746 µM

Q: And the IC50 [1, 10]?
A: 0.621 µM

Q: And the IC50 ([2]; Table 12, read-out: PM-2 IC50)?
A: 83.1 nM

Q: What about the IC50 ([2]; Table 13, read-out: PM-2 IC50) of the same molecule?
A: 83.1 nM

Q: And the IC50 ([4]; Table 12, read-out: BACE1 IC50)?
A: ~4000 nM

Q: What about the IC50 ([4]; Table 13, read-out: BACE1 IC50) of the same molecule?
A: ~3600 nM

Q: What about the “BACE1/PM2 Ratio” value [7] of the same molecule?
A: 48

Q: COc1cccc(-c2cccc(C3(C4CC4)NC(=N)N(C4CCCCC4)C3=O)c2)c1 (centres unmarked) [Example 328, 3-cyclohexyl-5-cyclopropyl-2-imino-5-[3-(3-methoxyphenyl)-phenyl]imidazolidin-4-one] was tested. Which IC50 [1, 10] did it give?
A: 0.746 µM

Q: And the IC50 ([2]; Table 12, read-out: PM-2 IC50)?
A: 104 nM

Q: What about the IC50 ([2]; Table 13, read-out: PM-2 IC50) of the same molecule?
A: 104 nM

Q: What about the IC50 ([4]; Table 12, read-out: BACE1 IC50) of the same molecule?
A: ~7000 nM

Q: And the IC50 ([4]; Table 13, read-out: BACE1 IC50)?
A: ~6800 nM

Q: And the “BACE1/PM2 Ratio” value [7, 11]?
A: 67

Q: With COc1ccc(C2(c3ccccn3)NC(=N)N(C3CCOCC3)C2=O)cc1 (centres unmarked) [Example 332, 2-imino-5-(4-methoxyphenyl)-3-(oxan-4-yl)-5-(pyridin-2-yl)-imidazolidin-4-one] as the molecule, how does the inhibition of growth at 1 µM ([1]; 3D7, 72 h, read-out: 3D7 % inh @ 1 μM) read?
A: 25%

Q: What about the IC50 ([2]; Table 13, read-out: PM-2 IC50) of the same molecule?
A: 216 nM

Q: What about the IC50 ([4]; Table 13, read-out: BACE1 IC50) of the same molecule?
A: > 10000 nM
